What follows are molecules tested against T1, ER (Homo sapiens, UniProt P03372) (assay: ER degradation activity, in-cell western blot analysis in T47D cells). Settings: 16 hours, Table A does not say which cell line (T47D or MCF7), read-out: Potency (DC50).
T1 construct: host or cells: T47D and MCF7 human breast cancer cells
T1 sequence (P03372 1-595): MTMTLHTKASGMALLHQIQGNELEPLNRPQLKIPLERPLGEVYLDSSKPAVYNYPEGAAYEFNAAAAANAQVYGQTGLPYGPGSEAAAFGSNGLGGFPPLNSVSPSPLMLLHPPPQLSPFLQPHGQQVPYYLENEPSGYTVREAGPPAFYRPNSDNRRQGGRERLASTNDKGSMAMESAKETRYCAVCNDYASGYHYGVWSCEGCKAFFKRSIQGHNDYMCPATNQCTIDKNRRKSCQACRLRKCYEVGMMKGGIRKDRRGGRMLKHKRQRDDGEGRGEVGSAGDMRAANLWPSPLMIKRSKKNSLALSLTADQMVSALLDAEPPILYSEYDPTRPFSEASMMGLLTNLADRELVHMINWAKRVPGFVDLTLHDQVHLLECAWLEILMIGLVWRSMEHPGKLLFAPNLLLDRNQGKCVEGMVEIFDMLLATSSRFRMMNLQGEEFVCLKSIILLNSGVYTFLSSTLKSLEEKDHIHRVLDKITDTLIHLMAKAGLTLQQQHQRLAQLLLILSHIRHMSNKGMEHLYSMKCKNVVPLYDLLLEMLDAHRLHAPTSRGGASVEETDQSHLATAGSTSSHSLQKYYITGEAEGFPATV
Assay type: cell-based
Procedure, shortened: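 T47D cells cultured in DMEM with 10% FBS, treated with compounds (final 0.5% DMSO) for 16 h. ER level measured by in-cell western with anti-rabbit-680/anti-mouse-800 near-infrared detection. Relative ER percentage calculated against untreated and DMSO-treated wells set as 100%.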

DC50	SMILES
10 to 100 nM	O=C1CCC(N2C(=O)c3cc4c(cc3C2=O)CN(C(=O)[C@H]2CC[C@H](N3CC(Nc5ccc([C@H]6c7ccc(O)cc7CC[C@H]6c6ccccc6)cc5)C3)CC2)C4)C(=O)N1 (stereo partly drawn) [E 390, 2-(2,6-dioxopiperidin-3-yl)-6-((1S,4r)-4-(3-((4-((1S,2R)-6-hydroxy-2-phenyl-1,2,3,4-tetrahydronaphthalen-1-yl)phenyl)amino)azetidin-1-yl)cyclohexane-1-carbonyl)-6,7-dihydropyrrolo[3,4-f]isoindole-1,3(2H,5H)-dione]
> 100 nM	C[C@@H]1Cc2c([nH]c3ccccc23)[C@@H](c2c(F)cc(-c3ccc(CN4CCC(N5Cc6cc7c(cc6C5)C(=O)N(C5CCC(=O)NC5=O)C7=O)CC4)nc3)cc2F)N1CC(F)F (stereo partly drawn) [E326, 6-(1-((5-(4-((1R,3R)-2-(2,2-difluoroethyl)-3-methyl-2,3,4,9-tetrahydro-1H-pyrido[3,4-b]indol-1-yl)-3,5-difluorophenyl)pyridin-2-yl)methyl)piperidin-4-yl)-2-(2,6-dioxopiperidin-3-yl)-6,7-dihydropyrrolo[3,4-f]isoindole-1,3(2H,5H)-dione]
10 to 100 nM	CN(C1CCN(c2ccc([C@@H]3c4ccc(O)cc4CC[C@@H]3c3ccccc3)cc2)CC1)N1CCC(C(=O)N2Cc3cc4c(cc3C2)C(=O)N(C2CCC(=O)NC2=O)C4=O)CC1 (mixture of isomers) [E 287, 2-(2,6-dioxopiperidin-3-yl)-6-(1-((1-(4-((1R,2S)-6-hydroxy-2-phenyl-1,2,3,4-tetrahydronaphthalen-1-yl)phenyl)piperidin-4-yl)(methyl)amino)piperidine-4-carbonyl)-6,7-dihydropyrrolo[3,4-f]isoindole-1,3(2H,5H)-dione]
10 to 100 nM	C[C@@H]1Cc2c([nH]c3ccccc23)[C@@H](c2c(F)cc(C3CCN(C(=O)[C@H]4CC[C@@H](N5Cc6cc7c(cc6C5)C(=O)N(C5CCC(=O)NC5=O)C7=O)CC4)CC3)cc2F)N1CC(F)F (stereo partly drawn) [E 392, 6-((1S,4s)-4-(4-(4-((1R,3R)-2-(2,2-difluoroethyl)-3-methyl-2,3,4,9-tetrahydro-1H-pyrido[3,4-b]indol-1-yl)-3,5-difluorophenyl)piperidine-1-carbonyl)cyclohexyl)-2-(2,6-dioxopiperidin-3-yl)-6,7-dihydropyrrolo[3,4-f]isoindole-1,3(2H,5H)-dione]
> 100 nM	C[C@@H]1Cc2c([nH]c3ccccc23)[C@@H](c2c(F)cc(N3CCC(CN4Cc5cc6c(cc5C4)C(=O)N(C4CCC(=O)NC4=O)C6=O)CC3)cc2F)N1CC(F)F (stereo partly drawn) [E 89, 6-((1-(4-((1R,3R)-2-(2,2-difluoroethyl)-3-methyl-2,3,4,9-tetrahydro-1H-pyrido[3,4-b]indol-1-yl)-3,5-difluorophenyl)piperidin-4-yl)methyl)-2-(2,6-dioxopiperidin-3-yl)-6,7-dihydropyrrolo[3,4-f]isoindole-1,3(2H,5H)-dione]
10 to 100 nM	O=C1CCC(N2C(=O)c3cc4c(cc3C2=O)CN(CC(=O)N2CC3(C2)CN(c2ccc([C@@H]5c6ccc(O)cc6CC[C@@H]5c5ccccc5)cc2)C3)C4)C(=O)N1 (mixture of isomers) [E 8, 2-(2,6-dioxopiperidin-3-yl)-6-(2-(6-(4-((1R,2S)-6-hydroxy-2-phenyl-1,2,3,4-tetrahydronaphthalen-1-yl)phenyl)-2,6-diazaspiro[3.3]heptan-2-yl)-2-oxoethyl)-6,7-dihydropyrrolo[3,4-f]isoindole-1,3(2H,5H)-dione]
> 100 nM	C[C@@H]1Cc2c([nH]c3ccccc23)[C@@H](c2c(F)cc(N3CC(C(=O)N4CCC(CN5Cc6cc7c(cc6C5)C(=O)N(C5CCC(=O)NC5=O)C7=O)CC4)C3)cc2F)N1CC(F)F (stereo partly drawn) [E 237, 6-((1-(1-(4-((1R,3R)-2-(2,2-difluoroethyl)-3-methyl-2,3,4,9-tetrahydro-1H-pyrido[3,4-b]indol-1-yl)-3,5-difluorophenyl)azetidine-3-carbonyl)piperidin-4-yl)methyl)-2-(2,6-dioxopiperidin-3-yl)-6,7-dihydropyrrolo[3,4-f]isoindole-1,3(2H,5H)-dione]
< 10 nM	C[C@@H]1Cc2c([nH]c3ccccc23)[C@@H](c2c(F)cc(N3CCC(C(=O)N4CCC(N5Cc6cc7c(cc6C5)C(=O)N(C5CCC(=O)NC5=O)C7=O)CC4)CC3)cc2F)N1CC(F)F (stereo partly drawn) [E 114, 6-(1-(1-(4-((1R,3R)-2-(2,2-difluoroethyl)-3-methyl-2,3,4,9-tetrahydro-1H-pyrido[3,4-b]indol-1-yl)-3,5-difluorophenyl)piperidine-4-carbonyl)piperidin-4-yl)-2-(2,6-dioxopiperidin-3-yl)-6,7-dihydropyrrolo[3,4-f]isoindole-1,3(2H,5H)-dione]
> 100 nM	O=C1CCC(N2C(=O)c3cc4c(cc3C2=O)CN(C2CCC(NCC3CN(c5ccc([C@@H]6c7ccc(O)cc7CC[C@@H]6c6ccccc6)cc5)C3)CC2)C4)C(=O)N1 (stereo partly drawn) [E 339, 2-(2,6-dioxopiperidin-3-yl)-6-(4-(((1-(4-((1R,2S)-6-hydroxy-2-phenyl-1,2,3,4-tetrahydronaphthalen-1-yl)phenyl)azetidin-3-yl)methyl)amino)cyclohexyl)-6,7-dihydropyrrolo[3,4-f]isoindole-1,3(2H,5H)-dione]
10 to 100 nM	C[C@@H]1Cc2cc(O)ccc2[C@@H](c2c(F)cc(N3CCC4(CN(CC(=O)N5Cc6cc7c(cc6C5)C(=O)N(C5CCC(=O)NC5=O)C7)C4)C3)cc2F)N1CC(F)F (stereo partly drawn) [E 38, 3-(6-(2-(6-(4-((1S,3R)-2-(2,2-difluoroethyl)-6-hydroxy-3-methyl-1,2,3,4-tetrahydroisoquinolin-1-yl)-3,5-difluorophenyl)-2,6-diazaspiro[3.4]octan-2-yl)acetyl)-1-oxo-3,5,6,7-tetrahydropyrrolo[3,4-f]isoindol-2(1H)-yl)piperidine-2,6-dione]
> 100 nM	C[C@@H]1Cc2cc(O)ccc2[C@@H](c2c(F)cc(N3CCC4(CCN(CC(=O)N5Cc6cc7c(cc6C5)C(=O)N(C5CCC(=O)NC5=O)C7)C4)C3)cc2F)N1CC(C)(F)F (stereo partly drawn) [E 32, 3-(6-(2-(7-(4-((1S,3R)-2-(2,2-difluoropropyl)-6-hydroxy-3-methyl-1,2,3,4-tetrahydroisoquinolin-1-yl)-3,5-difluorophenyl)-2,7-diazaspiro[4.4]nonan-2-yl)acetyl)-1-oxo-3,5,6,7-tetrahydropyrrolo[3,4-f]isoindol-2(1H)-yl)piperidine-2,6-dione]
> 100 nM	CN(C1CCN(c2ccc([C@@H]3c4ccc(O)cc4CC[C@@H]3c3ccccc3)cc2)CC1)N1CCC(CN2Cc3cc4c(cc3C2)C(=O)N(C2CCC(=O)NC2=O)C4)CC1 (mixture of isomers) [E 300, 3-(6-((1-((1-(4-((1R,2S)-6-hydroxy-2-phenyl-1,2,3,4-tetrahydronaphthalen-1-yl)phenyl)piperidin-4-yl)(methyl)amino)piperidin-4-yl)methyl)-1-oxo-3,5,6,7-tetrahydropyrrolo[3,4-f]isoindol-2(1H)-yl)piperidine-2,6-dione]
< 10 nM	C[C@@H]1Cc2c([nH]c3ccccc23)[C@@H](c2c(F)cc(N3CC4(CN(C(=O)CN5Cc6cc7c(cc6C5)C(=O)N(C5CCC(=O)NC5=O)C7=O)C4)C3)cc2F)N1CC(F)F (stereo partly drawn) [E 82, 6-(2-(6-(4-((1R,3R)-2-(2,2-difluoroethyl)-3-methyl-2,3,4,9-tetrahydro-1H-pyrido[3,4-b]indol-1-yl)-3,5-difluorophenyl)-2,6-diazaspiro[3.3]heptan-2-yl)-2-oxoethyl)-2-(2,6-dioxopiperidin-3-yl)-6,7-dihydropyrrolo[3,4-f]isoindole-1,3(2H,5H)-dione]

Same assay, conditions: compounds 16 hours, Table A does not say whether T47D or MCF7, read-out: Potency (DC50)

DC50	SMILES
> 100 nM	C[C@@H]1Cc2cc(O)ccc2[C@@H](c2c(F)cc(C3CCC4(CC3)CCN(C(=O)CN3Cc5cc6c(cc5C3)C(=O)N(C3CCC(=O)NC3=O)C6=O)CC4)cc2F)N1CC(F)F (stereo partly drawn) [E 447, 6-(2-(9-(4-((1S,3R)-2-(2,2-difluoroethyl)-6-hydroxy-3-methyl-1,2,3,4-tetrahydroisoquinolin-1-yl)-3,5-difluorophenyl)-3-azaspiro[5.5]undecan-3-yl)-2-oxoethyl)-2-(2,6-dioxopiperidin-3-yl)-6,7-dihydropyrrolo[3,4-f]isoindole-1,3(2H,5H)-dione]
10 to 100 nM	C[C@@H]1Cc2c([nH]c3ccccc23)[C@@H](c2ccc(C3CCC(C(=O)N4CCC(N5Cc6cc7c(cc6C5)C(=O)N(C5CCC(=O)NC5=O)C7=O)CC4)CC3)c(F)c2)N1CC(F)F (stereo partly drawn) [E 475, 6-(1-(4-(4-((1R,3R)-2-(2,2-difluoroethyl)-3-methyl-2,3,4,9-tetrahydro-1H-pyrido[3,4-b]indol-1-yl)-2-fluorophenyl)cyclohexane-1-carbonyl)piperidin-4-yl)-2-(2,6-dioxopiperidin-3-yl)-6,7-dihydropyrrolo[3,4-f]isoindole-1,3(2H,5H)-dione]
10 to 100 nM	O=C1CCC(N2C(=O)c3cc4c(cc3C2=O)CN(CC(=O)N2CCC(Oc3ccc([C@@H]5c6ccc(O)cc6CC[C@@H]5c5ccccc5)cc3)CC2)C4)C(=O)N1 (stereo partly drawn) [E 489, 2-(2,6-dioxopiperidin-3-yl)-6-(2-(4-(4-((1R,2S)-6-hydroxy-2-phenyl-1,2,3,4-tetrahydronaphthalen-1-yl)phenoxy)piperidin-1-yl)-2-oxoethyl)-6,7-dihydropyrrolo[3,4-f]isoindole-1,3(2H,5H)-dione]

— patent US20240190880A1 (THE REGENTS OF THE UNIVERSITY OF MICHIGAN, priority 2021, published 2024)
